# Assay results from ChEMBL document CHEMBL1201862, “PubChem BioAssay data set” (2004).
# Active and inactive are the calls of the source.
# What was measured:
# HEK293 [1] = assay: HEK cell cytotoxicity by LDH release, dose response, cytotoxicity control for IDE activator project, fluorescence, HEK cells (AID 588440); format: functional, cell-based; conditions: Homo sapiens;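 also: cytotoxicity by LDH release measuring loss of membrane integrity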
# [2] = HEp-2 cell cytotoxicity, dose response, cytotoxicity control for RSV inhibitor project, HTS (AID 2410); format: functional; conditions: human respiratory syncytial virus
# Insulin-degrading enzyme [3] = molecular target: T1, Insulin-degrading enzyme (Homo sapiens, UniProt P14735); assay: activators of recombinant IDE enzyme, dose response, counter-screen for IDE activator project, biochemical, fluorescence polarization (AID 588681)
# T1 sequence (P14735 whole entry): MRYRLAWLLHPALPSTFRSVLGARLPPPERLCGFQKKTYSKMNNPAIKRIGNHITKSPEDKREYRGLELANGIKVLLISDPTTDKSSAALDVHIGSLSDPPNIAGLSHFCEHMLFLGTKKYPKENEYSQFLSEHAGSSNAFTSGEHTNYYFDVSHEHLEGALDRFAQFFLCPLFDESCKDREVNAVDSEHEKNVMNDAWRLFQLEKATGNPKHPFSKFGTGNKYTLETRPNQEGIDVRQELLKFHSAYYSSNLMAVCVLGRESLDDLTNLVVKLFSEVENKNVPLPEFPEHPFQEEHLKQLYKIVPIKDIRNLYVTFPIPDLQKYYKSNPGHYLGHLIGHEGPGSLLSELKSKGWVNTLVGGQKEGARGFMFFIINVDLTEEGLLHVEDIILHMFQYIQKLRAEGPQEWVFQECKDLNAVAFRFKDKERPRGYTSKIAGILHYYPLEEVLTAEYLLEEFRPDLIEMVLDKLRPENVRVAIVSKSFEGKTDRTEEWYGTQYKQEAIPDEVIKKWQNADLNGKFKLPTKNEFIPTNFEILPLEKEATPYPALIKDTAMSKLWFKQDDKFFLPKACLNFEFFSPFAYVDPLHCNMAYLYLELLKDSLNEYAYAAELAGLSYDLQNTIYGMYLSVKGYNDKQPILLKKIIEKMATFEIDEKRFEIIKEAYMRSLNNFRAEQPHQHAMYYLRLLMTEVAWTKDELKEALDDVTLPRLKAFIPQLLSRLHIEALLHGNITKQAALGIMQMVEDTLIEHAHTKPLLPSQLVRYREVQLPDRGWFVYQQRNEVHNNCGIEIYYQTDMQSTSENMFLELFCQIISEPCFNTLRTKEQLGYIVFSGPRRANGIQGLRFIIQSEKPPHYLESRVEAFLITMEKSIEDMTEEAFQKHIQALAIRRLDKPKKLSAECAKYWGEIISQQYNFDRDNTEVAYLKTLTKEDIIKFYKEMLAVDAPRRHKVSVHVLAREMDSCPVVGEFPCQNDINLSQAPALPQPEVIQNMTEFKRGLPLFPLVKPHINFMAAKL
# Insulin-degrading enzyme [4] = molecular target: T1, Insulin-degrading enzyme; assay: activators of endogenous IDE in HEK cells, dose response, cell-based, fluorescence polarization (AID 588439); format: functional
# HEK293 [5] = assay: optical interference in Abeta FP readout, dose response, artefact control for IDE activator project, biochemical, fluorescence polarization (AID 588442); format: functional, cell-based; conditions: Homo sapiens
# Escherichia coli = assay: microbe, parasite or virus in culture
# [6] = molecular target: Peroxisome proliferator-activated receptor gamma/Nuclear receptor coactivator 1 (Homo sapiens, UniProt P37231); assay: (§1) TR-FRET dose response biochemical High Throughput Screening assay for agonists of the steroid receptor coactivator 1 (SRC-1) recruitment by the peroxisome proliferator-activated receptor gamma (PPAR gamma): non-selective agonists. [Related pubchem assays (depositor defined):AID1300, AID1808, AID504735, AID631]; format: protein assay
# [7] = molecular target: Peroxisome proliferator-activated receptor gamma/Nuclear receptor coactivator 3 (Homo sapiens, UniProt P37231); assay: as §1, with “3 (SRC-3)” for “1 (SRC-1)”, “assays: 1301 (Confirmation screen.), 1048 (Primary screen.)]” for “assays (depositor defined):AID1300, AID1808, AID504735, AID631]”; format: functional
# [8] = molecular target: Peroxisome proliferator-activated receptor gamma/Nuclear receptor coactivator 2 (Homo sapiens, UniProt P37231); assay: TR-FRET dose response biochemical High Throughput Screening assay for agonists of the steroid receptor coactivator 2 (SRC-2) recruitment by the peroxisome proliferator-activated receptor gamma (PPAR gamma): non-selective agonists. [Related pubchem assays: 1297, 1032 ]; format: functional
# [9] = cytotoxicity in HEK-293T cells, dose response, cytotoxicity control for BCR NF-kB inhibitor project, luminescence, B-cell screen hits (AID 489021); format: functional, cell-based;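 also: HEK-293T cells carrying an NF-kB luciferase reporter; cells exposed to compound for about 14 hours before viability readout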
# [10] = Shn3 3'UTR reporter inhibitors, dose response, cell-based, Clone20 osteoblasts, firefly luciferase, cherry-picked (AID 624132); format: functional;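 also: firefly luciferase luminescence from reporter carrying the Shn3 3'UTR in osteoblasts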
# HEK293 [11] = assay: NOD2 signaling inhibitors in MDP-stimulated cells, cell-based, uHTS, luminescence (AID 2001); format: functional; conditions: Homo sapiens
# HEK293 [12] = assay: cells; format: functional, cell-based; conditions: Homo sapiens
# HEK293 [13] = assay: NOD1 signaling inhibitors, primary screen, cell-based, luminescence, uHTS (AID 1578); format: functional; conditions: Homo sapiens
# [14] = control 3'UTR Renilla luciferase suppression, dose response, counter-screen for Shn3 inhibitor project, cell-based, Clone20-Shn3RL, cherry-picked (AID 624133); format: functional
# [15] = molecular target: T2, Calpain-2 catalytic subunit (Sus scrofa, UniProt P43367); assay: pig calpain II inhibitor potency, dose response, biochemical, fluorogenic peptide substrate (AID 1420); format: functional
# T2 sequence (P43367 whole entry): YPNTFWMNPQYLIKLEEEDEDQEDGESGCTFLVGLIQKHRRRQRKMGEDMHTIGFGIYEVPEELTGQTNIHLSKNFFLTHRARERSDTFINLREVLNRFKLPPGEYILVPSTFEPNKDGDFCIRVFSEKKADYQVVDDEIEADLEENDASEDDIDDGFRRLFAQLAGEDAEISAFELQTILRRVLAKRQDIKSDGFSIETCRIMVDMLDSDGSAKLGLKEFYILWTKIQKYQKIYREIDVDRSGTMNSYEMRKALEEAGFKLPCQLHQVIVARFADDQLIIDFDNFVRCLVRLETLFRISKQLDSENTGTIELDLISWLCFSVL
# [16] = HepG2 cell cytotoxicity, dose response, cytotoxicity control for Shn3 inhibitor project, CellTiter-Glo, cherry-picked (AID 624134); format: functional, cell-based
# HEK293 [17] = assay: cells; format: functional, cell-based; conditions: Homo sapiens; remark: listed apart in the source
# Cytochrome P450 2C19 = Cytochrome P450 2C19 (Homo sapiens, UniProt P33261); assay: Cytochrome panel assay with activity outcomes. Panel member name: p450-cyp2c19 Compounds with AC50 equal or less than 10 uM are considered active; format: functional; conditions: read-out: AC50
# Cytochrome P450 3A4 = Cytochrome P450 3A4 (Homo sapiens, UniProt P08684);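 also: CYP3A4 tested as one member of a cytochrome P450 panel screen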
# Cytochrome P450 3A4, sequence (P08684 whole entry): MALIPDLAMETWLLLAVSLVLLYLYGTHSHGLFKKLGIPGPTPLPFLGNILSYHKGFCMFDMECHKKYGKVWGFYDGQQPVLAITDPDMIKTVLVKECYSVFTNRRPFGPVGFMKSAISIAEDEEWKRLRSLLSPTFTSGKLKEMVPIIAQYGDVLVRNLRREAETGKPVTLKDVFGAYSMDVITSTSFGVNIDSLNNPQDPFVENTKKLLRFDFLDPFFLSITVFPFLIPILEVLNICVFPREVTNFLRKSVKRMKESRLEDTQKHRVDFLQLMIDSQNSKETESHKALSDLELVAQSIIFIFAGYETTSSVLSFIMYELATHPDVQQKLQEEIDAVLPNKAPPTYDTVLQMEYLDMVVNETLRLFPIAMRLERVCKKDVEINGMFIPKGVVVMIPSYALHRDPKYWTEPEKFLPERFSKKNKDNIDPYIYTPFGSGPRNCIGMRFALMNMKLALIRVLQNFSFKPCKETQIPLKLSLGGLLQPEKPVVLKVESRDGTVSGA
# Peroxisome proliferator-activated receptor gamma/Nuclear receptor coactivator 2, sequence (P37231 whole entry): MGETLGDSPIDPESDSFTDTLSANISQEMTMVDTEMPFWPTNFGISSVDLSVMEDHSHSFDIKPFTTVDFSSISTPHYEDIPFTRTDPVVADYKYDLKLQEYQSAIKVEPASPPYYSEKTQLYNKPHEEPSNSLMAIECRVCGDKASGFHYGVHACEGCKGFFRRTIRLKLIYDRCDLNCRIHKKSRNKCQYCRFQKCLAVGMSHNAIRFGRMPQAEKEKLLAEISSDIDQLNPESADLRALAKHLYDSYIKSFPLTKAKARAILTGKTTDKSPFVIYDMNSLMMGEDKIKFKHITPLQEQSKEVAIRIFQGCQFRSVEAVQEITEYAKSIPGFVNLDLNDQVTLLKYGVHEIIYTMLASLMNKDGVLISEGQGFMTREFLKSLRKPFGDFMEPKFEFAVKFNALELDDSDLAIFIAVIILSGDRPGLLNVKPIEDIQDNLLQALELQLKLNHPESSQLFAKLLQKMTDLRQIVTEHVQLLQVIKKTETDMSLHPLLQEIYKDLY
# Peroxisome proliferator-activated receptor gamma/Nuclear receptor coactivator 2, sequence (Q15596 whole entry, further chain): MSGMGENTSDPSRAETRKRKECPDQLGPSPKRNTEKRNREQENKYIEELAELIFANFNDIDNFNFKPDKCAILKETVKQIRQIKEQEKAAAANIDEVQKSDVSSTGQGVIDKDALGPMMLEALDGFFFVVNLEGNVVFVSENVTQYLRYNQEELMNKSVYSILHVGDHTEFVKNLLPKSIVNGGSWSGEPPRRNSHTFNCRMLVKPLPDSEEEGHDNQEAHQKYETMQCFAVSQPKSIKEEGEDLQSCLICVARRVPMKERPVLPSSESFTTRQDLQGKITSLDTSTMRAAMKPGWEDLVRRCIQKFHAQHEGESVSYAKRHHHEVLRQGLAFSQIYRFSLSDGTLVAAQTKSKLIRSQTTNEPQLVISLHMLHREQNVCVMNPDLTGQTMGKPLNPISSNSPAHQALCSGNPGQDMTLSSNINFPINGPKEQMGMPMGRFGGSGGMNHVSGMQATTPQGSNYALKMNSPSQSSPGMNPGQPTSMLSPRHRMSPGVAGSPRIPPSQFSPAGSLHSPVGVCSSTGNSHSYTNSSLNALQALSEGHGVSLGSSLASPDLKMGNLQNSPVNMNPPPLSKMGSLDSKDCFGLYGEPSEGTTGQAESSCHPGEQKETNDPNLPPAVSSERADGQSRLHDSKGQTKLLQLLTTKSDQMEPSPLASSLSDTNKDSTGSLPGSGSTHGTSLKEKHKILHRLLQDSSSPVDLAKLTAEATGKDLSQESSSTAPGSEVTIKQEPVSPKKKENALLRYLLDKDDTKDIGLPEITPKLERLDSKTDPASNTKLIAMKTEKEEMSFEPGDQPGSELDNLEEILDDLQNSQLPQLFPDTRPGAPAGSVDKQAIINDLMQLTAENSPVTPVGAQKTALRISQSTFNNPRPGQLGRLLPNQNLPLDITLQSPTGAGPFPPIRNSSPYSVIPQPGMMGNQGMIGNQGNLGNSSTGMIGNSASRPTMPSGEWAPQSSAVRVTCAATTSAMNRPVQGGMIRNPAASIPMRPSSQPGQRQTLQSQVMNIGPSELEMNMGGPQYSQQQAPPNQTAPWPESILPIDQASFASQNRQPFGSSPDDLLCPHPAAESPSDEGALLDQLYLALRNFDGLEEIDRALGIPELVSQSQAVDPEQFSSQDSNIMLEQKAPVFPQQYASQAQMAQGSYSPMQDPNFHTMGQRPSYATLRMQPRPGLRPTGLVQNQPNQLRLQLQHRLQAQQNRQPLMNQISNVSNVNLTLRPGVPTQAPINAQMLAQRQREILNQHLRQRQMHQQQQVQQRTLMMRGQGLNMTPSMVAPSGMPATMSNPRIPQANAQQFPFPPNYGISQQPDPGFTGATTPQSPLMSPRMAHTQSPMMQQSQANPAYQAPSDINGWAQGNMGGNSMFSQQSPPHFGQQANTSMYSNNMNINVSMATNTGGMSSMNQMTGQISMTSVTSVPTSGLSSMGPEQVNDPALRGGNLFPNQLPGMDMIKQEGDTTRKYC
# Peroxisome proliferator-activated receptor gamma/Nuclear receptor coactivator 1, sequence (P37231 whole entry): as the sequence (P37231 whole entry) above
# Peroxisome proliferator-activated receptor gamma/Nuclear receptor coactivator 1, sequence (Q15788 whole entry, further chain): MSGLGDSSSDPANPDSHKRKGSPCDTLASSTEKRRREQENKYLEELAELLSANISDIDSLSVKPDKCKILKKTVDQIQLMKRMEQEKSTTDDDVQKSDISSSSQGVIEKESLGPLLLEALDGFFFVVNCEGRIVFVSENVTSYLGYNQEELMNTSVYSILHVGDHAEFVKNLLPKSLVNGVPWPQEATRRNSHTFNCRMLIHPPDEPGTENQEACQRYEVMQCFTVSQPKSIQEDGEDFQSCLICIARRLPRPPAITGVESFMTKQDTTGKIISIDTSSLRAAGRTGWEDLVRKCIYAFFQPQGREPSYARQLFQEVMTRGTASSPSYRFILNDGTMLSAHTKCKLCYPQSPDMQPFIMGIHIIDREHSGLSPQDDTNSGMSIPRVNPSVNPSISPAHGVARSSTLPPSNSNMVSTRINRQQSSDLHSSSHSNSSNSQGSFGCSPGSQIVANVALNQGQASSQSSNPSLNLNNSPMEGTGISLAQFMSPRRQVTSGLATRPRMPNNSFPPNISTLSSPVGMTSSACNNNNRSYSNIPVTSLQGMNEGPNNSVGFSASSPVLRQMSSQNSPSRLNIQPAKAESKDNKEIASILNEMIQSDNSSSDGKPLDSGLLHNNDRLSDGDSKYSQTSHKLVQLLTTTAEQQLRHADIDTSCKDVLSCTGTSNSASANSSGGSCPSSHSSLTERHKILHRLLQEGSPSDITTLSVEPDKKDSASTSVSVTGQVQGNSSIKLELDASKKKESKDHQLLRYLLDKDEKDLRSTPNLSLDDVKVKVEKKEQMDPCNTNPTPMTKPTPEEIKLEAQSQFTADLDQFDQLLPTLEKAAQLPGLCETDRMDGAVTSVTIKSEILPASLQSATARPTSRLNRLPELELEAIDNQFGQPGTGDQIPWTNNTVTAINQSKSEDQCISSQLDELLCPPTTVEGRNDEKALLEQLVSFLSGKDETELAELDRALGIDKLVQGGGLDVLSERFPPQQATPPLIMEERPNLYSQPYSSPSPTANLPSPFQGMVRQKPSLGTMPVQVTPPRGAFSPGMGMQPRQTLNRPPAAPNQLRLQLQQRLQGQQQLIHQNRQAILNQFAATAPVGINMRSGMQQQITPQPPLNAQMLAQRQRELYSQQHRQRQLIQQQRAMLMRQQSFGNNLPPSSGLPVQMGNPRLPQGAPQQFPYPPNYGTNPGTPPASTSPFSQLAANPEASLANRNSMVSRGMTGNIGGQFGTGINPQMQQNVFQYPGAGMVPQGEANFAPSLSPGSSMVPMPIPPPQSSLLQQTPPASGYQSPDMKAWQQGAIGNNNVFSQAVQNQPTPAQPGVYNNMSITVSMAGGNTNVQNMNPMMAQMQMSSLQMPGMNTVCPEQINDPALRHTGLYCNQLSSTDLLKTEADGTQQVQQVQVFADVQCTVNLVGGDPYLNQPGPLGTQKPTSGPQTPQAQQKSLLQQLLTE
# Cytochrome P450 2C19, sequence (P33261 whole entry): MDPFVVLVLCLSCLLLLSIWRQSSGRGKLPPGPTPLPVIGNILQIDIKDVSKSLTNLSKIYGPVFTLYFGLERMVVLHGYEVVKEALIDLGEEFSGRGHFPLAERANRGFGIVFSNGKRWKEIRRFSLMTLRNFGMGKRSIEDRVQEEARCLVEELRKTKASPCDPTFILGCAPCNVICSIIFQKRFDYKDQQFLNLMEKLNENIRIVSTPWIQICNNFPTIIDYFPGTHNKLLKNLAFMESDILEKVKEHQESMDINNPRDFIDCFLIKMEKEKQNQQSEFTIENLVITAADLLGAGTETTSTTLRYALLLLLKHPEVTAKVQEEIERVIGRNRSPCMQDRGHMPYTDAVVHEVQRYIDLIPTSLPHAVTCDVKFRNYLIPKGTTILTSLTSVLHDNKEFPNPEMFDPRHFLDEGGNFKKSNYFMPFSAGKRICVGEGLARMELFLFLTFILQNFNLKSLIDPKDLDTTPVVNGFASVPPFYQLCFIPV
structure (smiles),measurement,setting,value
Nc1c(C(=O)CSc2nc3ccccc3o2)c(=O)[nH]c(=O)n1C1CC1,IC50,HEK293 [1],> 89.2 µM (inactive)
same,CC50,[2],26.3 µM (active)
same,EC50,Insulin-degrading enzyme [3],> 54.7 µM (inactive)
same,EC50,Insulin-degrading enzyme [4],> 54.7 µM (inactive)
same,EC50,HEK293 [5],> 54.7 µM (inactive)
O=C(CN(Cc1ccco1)C(=O)c1ccccc1F)Nc1ccccc1C(F)(F)F,AC50,Escherichia coli,103 µM (active)
CCn1c(=O)cc(SCC(=O)N2CCC3(CC2)OCCO3)c2ccccc21,EC50,[6],> 79.4 µM (inactive)
same,EC50,[7],> 79.4 µM (not active)
same,EC50,[8],> 79.4 µM (not active)
same,IC50,[9],> 80 µM (inactive)
CC(C)Cn1c(N)c(C(=O)COC(=O)CC23CC4CC(CC(C4)C2)C3)c(=O)n(C)c1=O,AC50,[10],1.51 µM (active)
same,IC50,HEK293 [11],3.31 µM (active)
same,IC50,HEK293 [12],6.35 µM (active)
same,EC50,HEK293 [13],3.06 µM (active)
same,AC50,[14],0.435 µM (active)
same,IC50,[15],5.92 µM (not active)
same,AC50,[16],1.7 µM (active)
same,IC50,HEK293 [17],2.31 µM (active)
O=C(CCNC(=O)c1ccc([N+](=O)[O-])cc1)Nc1cccc(S(=O)(=O)N2CCCCCC2)c1,AC50,Escherichia coli,57 µM (active)
Cc1cc(NC(=O)CSc2nc3ccsc3c(=O)n2CCCCC(=O)O)no1,AC50,Cytochrome P450 2C19,3.98 µM (inconclusive)
same,AC50,Cytochrome P450 3A4,inconclusive
CO[C@@]12[C@@H]3N[C@@H]3CN1C1=C(C(=O)C(N)=C(C)C1=O)[C@@H]2COC(N)=O,AC50,Escherichia coli,0.496 µM (active)
